Like-named read-outs stand apart in the source and are kept apart here.
How the values were obtained:
alpha 1A (h) = target: T1, alpha 1A (h) (Homo sapiens, UniProt P35348); experiment: CEREP panel; assay type: binding; details: 10 µM
T1 construct: CEREP
T1 sequence (P35348 1-466): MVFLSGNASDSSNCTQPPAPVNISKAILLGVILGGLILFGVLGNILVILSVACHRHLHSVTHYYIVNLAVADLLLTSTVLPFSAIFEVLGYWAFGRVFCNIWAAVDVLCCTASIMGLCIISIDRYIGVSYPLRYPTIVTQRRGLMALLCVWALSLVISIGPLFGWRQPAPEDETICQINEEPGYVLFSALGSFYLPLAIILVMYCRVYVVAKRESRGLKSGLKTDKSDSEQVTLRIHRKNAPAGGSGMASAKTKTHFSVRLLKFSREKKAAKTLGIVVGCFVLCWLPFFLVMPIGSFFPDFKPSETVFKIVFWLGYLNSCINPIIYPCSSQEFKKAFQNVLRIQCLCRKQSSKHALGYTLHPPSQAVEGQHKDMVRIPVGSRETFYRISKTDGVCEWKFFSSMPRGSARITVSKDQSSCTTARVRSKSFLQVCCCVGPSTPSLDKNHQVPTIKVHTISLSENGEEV

A1 (h) = target: T2, A1 (h) (Homo sapiens, UniProt P30542); experiment: CEREP panel; assay type: binding; details: 10 µM
T2 construct: CEREP
T2 sequence (P30542 1-326): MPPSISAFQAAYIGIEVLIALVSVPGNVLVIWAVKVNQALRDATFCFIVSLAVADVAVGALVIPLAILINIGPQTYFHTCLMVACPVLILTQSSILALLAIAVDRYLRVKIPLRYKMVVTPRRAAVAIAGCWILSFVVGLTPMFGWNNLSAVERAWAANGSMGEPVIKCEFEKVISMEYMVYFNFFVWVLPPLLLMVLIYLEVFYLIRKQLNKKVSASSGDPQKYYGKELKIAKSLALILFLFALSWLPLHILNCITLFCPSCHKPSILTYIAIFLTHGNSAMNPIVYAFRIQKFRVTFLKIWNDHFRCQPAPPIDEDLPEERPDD

N muscle-type (h) = target: T3, N muscle-type (h) (Homo sapiens, UniProt P02708+P07510+P11230+Q07001); experiment: CEREP panel; assay type: binding; details: 10 µM
T3 construct: CEREP (contract assay)
T3 sequence (P02708 21-457): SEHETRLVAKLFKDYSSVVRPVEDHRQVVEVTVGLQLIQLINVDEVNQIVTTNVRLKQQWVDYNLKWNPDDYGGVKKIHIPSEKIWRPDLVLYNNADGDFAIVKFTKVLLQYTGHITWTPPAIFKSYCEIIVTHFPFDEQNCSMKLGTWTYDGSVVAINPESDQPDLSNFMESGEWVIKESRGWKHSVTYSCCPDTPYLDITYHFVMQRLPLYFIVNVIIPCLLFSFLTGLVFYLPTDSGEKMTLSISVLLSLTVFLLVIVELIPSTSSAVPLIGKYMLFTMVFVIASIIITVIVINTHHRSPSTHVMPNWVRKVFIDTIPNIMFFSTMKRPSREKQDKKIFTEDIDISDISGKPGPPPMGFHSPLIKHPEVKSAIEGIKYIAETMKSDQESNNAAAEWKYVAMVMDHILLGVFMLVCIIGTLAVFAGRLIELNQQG
T3 sequence (P11230 24-501): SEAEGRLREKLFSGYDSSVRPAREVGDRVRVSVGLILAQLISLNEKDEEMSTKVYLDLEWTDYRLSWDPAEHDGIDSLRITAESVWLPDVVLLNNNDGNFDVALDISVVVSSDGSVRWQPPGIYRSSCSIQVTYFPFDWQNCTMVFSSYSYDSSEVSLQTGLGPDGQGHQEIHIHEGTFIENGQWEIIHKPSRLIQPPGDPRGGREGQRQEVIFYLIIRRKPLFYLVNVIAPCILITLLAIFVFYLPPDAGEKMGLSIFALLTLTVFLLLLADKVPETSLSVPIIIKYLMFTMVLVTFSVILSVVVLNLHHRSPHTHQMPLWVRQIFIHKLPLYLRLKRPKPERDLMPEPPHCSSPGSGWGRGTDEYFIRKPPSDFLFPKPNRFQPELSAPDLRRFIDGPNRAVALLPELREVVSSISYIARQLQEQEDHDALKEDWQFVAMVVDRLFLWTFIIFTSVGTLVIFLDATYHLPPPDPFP
T3 sequence (Q07001 22-517): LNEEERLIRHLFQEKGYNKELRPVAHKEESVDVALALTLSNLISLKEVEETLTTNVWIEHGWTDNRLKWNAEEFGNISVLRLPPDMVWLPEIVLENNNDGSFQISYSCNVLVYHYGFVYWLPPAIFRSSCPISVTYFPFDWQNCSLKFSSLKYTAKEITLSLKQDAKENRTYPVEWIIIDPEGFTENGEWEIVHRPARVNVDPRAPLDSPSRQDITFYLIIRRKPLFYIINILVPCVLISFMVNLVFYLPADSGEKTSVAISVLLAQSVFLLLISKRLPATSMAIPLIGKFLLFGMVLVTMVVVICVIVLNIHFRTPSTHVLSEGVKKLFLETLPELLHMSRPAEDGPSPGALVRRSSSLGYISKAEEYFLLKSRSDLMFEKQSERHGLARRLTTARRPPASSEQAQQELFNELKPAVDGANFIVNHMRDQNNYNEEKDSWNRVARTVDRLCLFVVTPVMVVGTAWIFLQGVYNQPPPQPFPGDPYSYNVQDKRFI
T3 sequence (P07510 23-517): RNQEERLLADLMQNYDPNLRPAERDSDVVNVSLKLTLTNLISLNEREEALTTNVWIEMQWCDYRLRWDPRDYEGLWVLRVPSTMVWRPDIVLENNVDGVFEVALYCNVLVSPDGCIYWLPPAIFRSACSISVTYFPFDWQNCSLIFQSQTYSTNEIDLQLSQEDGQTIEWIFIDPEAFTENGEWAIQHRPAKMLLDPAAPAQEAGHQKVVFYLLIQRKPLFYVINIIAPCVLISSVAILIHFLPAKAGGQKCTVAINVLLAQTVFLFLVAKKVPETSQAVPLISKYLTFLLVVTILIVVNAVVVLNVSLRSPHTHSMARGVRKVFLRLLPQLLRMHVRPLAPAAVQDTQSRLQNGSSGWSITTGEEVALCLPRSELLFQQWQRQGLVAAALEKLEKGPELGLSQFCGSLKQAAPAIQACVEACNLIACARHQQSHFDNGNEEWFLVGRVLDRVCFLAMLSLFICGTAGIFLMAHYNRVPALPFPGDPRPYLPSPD

hCB2R [1] = target: T4, hCB2R (Homo sapiens, UniProt P34972); experiment: biochemical; assay type: biochemical; set-up: expressed in transfected cells; host or cells: Flp-In-293 (Invitrogen #R750-07), pcDNA5/FRT
T4 sequence (P34972 whole entry): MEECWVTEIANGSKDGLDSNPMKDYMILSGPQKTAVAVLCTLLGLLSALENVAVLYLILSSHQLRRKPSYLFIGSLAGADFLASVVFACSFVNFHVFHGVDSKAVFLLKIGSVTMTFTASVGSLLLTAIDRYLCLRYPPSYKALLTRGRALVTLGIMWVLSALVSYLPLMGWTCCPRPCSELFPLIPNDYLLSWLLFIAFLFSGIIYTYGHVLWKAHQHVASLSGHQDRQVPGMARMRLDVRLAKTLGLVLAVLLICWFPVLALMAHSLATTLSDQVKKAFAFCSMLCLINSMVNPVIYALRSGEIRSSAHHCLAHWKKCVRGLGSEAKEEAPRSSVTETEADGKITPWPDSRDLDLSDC

hGPR55 = target: T5, hGPR55 (Homo sapiens, UniProt Q9Y2T6); experiment: cell-based
T5 construct: host or cells: CHO-K1 (PathHunter hGPR55_bgal)
T5 sequence (Q9Y2T6 whole entry): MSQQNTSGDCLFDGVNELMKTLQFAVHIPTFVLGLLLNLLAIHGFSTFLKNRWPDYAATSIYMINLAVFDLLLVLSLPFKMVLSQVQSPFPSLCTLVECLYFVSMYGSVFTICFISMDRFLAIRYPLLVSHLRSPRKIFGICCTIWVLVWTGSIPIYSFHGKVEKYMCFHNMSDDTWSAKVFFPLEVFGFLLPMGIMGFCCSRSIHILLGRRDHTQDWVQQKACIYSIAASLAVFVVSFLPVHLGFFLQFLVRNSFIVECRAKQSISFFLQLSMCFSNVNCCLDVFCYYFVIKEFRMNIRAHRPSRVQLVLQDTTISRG

hCB2R [2] = target: T4, hCB2R; experiment: cell-based; assay type: cell-based; set-up: expressed in transfected cells; host or cells: Flp-In-293 (Invitrogen #R750-07), pcDNA5/FRT
[3] = 1 μM
hCB1R [4] = target: T6, hCB1R (Homo sapiens, UniProt P21554); experiment: cell-based; assay type: cell-based
T6 construct: host or cells: CHO
T6 sequence (P21554 whole entry): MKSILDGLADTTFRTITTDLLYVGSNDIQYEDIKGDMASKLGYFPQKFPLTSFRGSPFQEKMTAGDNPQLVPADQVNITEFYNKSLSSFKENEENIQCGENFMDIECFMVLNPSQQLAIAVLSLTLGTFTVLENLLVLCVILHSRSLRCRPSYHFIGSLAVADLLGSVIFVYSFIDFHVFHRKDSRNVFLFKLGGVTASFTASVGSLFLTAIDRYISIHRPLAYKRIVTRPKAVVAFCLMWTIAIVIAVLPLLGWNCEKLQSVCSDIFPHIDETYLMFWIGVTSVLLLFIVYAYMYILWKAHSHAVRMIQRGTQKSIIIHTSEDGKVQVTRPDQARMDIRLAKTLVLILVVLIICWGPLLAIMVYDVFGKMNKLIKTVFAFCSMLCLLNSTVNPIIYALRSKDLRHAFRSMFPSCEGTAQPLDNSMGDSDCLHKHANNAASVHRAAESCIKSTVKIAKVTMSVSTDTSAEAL

hCB2R [5] = target: T4, hCB2R; experiment: biochemical; assay type: binding; details: CHO membranes; Leiden, HU210 and SR144528 from Roche
[6] = tested on: AEA cellular uptake in HMC-1 cells; experiment: cells; assay type: cell-based, human; details: read-out: AEA reuptake IC50 (95% CI) HMC-1 cells; FAAH-deficient cells
[7] = tested on: AEA cellular uptake in U937 cells; experiment: cells; assay type: cell-based, human
hCB1R [8] = target: T6, hCB1R; experiment: biochemical; assay type: biochemical
BZD (central) = assay type: binding; details: 10 µM

SMILES | % inhibition alpha 1A (h) (alpha 1A (h)) [%] | % inhibition A1 (h) (A1 (h)) [%] | % inhibition N muscle-type (h) (N muscle-type (h)) [%] | Emax ± SEM GTPγS hCB2R (hCB2R [1]) | GPR55 pEC50 (± SEM) (hGPR55) | GPR55 Emax ± SEM (%) or % effect at 10 µM (hGPR55; β-arrestin recruitment) [%] | CB2R Selectivity GIRK (hCB2R [2]; 10^(pEC50 CB2R-pEC50 CB1R)) [fold] | pEC50 ± SEM GIRK hCB2R (hCB2R [2]; antagonists in presence of CP55940) | CL hepatocytes human [3] [µL/min/mio cells] | Emax ± SEM pERK hCB1R (hCB1R [4]) | pEC50 ± SEM GTPγS hCB2R (hCB2R [1]) | Emax ± SEM GTPγS hCB2R (hCB2R [1]; normalized to 10 µM CP55940, negative = inverse agonism) [%] | pKi ± SEM hCB2R (hCB2R [5]) | IC50 [6] [nM] | AEA reuptake Efficacy (% inhibition) U937 cells ([7]; from dose-response) [%] | IC50 ([7]; read-out: AEA reuptake IC50 (95% CI) U937 cells) [nM] | pEC50 ± SEM GTPγS hCB1R (hCB1R [8]) | GPR55 pEC50 (± SEM) (hGPR55; β-arrestin recruitment) | % inhibition BZD (central) (BZD (central)) [%]
Cc1c(C(=O)NN2CCCCC2)nn(-c2ccc(Cl)cc2Cl)c1-c1ccc(I)cc1 [AM251] | 6 | 27 | 12 | -29 ± 2 | 5.49±0.09 | 82±9 |  |  |  |  |  |  |  |  |  |  |  |  | 
Cc1ccc2c(c1)Cc1c(C(=O)NN3CCCCC3)nn(-c3ccc(Cl)cc3Cl)c1-2 [Gp-1a] | 11 | 25 |  |  |  |  | 5 | 5.99 ± 0.08 | 32 | 2 ± 3 | 7.09 ± 0.07 | -14 ± 5 | 7.66 ± 0.11 | > 5000 | 64 | 1260 | < 5 | < 5 | -10

Reference: PMC5216056 (Nature Communications, 2017)
